Among the data in PubChem BioAssay (NCI) are GI50 and TGI values, retold here.

Test systems include 786-0 renal; COLO 205 colon; DU-145 prostate; EKVX NSCLC; MALME-3M melanoma; OVCAR-8 ovarian; SK-MEL-28 melanoma; SNB-19 CNS; SNB-75 CNS; U251 CNS.
What all share (test): inhibition of tumour cell growth, NCI panel, 48 h

Molecules are shown by their SMILES.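 Exposure lasted 48 hours, with cells grown in 96-well plates and compounds tested at five concentrations. The concentration for 50% growth inhibition is given as GI50. Definition used: TGI = concentration required for complete inhibition of growth.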 A value given as a limit tells only on which side of the number the result lay.

For `C1CC[N-]CC1.CC(=N\O)/C(C)=N/O.CC(=N\O)/C(C)=N/O.C[CH-]C(C)O.[Co+2]`, the GI50 in the test with 786-0 renal was 33.9 µM; in the test with COLO 205 colon, 14.9 µM; in the test with DU-145 prostate, 81.1 µM; in the test on EKVX NSCLC, 35.7 µM; in the test on MALME-3M melanoma it was 15.2 µM; with OVCAR-8 ovarian it was 21.2 µM. The GI50 was 29.2 µM in the test on SK-MEL-28 melanoma, 49.6 µM in the test on SNB-19 CNS, 19.5 µM in the test on SNB-75 CNS and 17.7 µM with U251 CNS. The TGI with 786-0 renal was > 100 µM; with COLO 205 colon, 29 µM; with DU-145 prostate it was > 100 µM; in the test with EKVX NSCLC, > 100 µM; with MALME-3M melanoma it was 29.7 µM; with OVCAR-8 ovarian, 59.6 µM. Also, the TGI in the test on SK-MEL-28 melanoma is 61.2 µM; in the test on SNB-19 CNS, > 100 µM; in the test on SNB-75 CNS, 71.4 µM; in the test on U251 CNS, 31.5 µM.
In the case of `CC1/C(=N/O)CC(c2ccccc2)N(N=O)C1c1ccccc1` (stereo not given), the TGI in the test on 786-0 renal, in the test with COLO 205 colon, in the test on DU-145 prostate, in the test on EKVX NSCLC, in the test with MALME-3M melanoma and in the test with OVCAR-8 ovarian was > 100 µM each time. Besides, the TGI with SK-MEL-28 melanoma, with SNB-19 CNS, in the test on SNB-75 CNS and in the test on U251 CNS was > 100 µM throughout.
`Cn1cccc1-c1cc(-c2ccccc2)nc(N)c1C#N`: the GI50 in the test on 786-0 renal was > 96.4 µM; in the test on COLO 205 colon, > 100 µM; in the test on DU-145 prostate, 97.5 µM; in the test on EKVX NSCLC, 98.1 µM; in the test on MALME-3M melanoma, > 100 µM; in the test on OVCAR-8 ovarian it was > 100 µM. The GI50 in the test with SK-MEL-28 melanoma was > 100 µM; in the test on SNB-19 CNS it was > 89.5 µM; in the test on SNB-75 CNS, > 43 µM; with U251 CNS, > 100 µM. For the same molecule, the TGI in the test on 786-0 renal, in the test with COLO 205 colon, in the test on DU-145 prostate, in the test on EKVX NSCLC, in the test with MALME-3M melanoma and with OVCAR-8 ovarian was > 100 µM throughout. In addition, the TGI in the test on SK-MEL-28 melanoma was > 100 µM; in the test with SNB-19 CNS it was > 100 µM; in the test with SNB-75 CNS it was > 87.9 µM; in the test on U251 CNS it was > 100 µM.
In the case of `O=C1/C(=C/c2ccc(O)cc2)Oc2ccccc21`, the TGI in the test with 786-0 renal, in the test on COLO 205 colon, in the test with DU-145 prostate, in the test on EKVX NSCLC, in the test on MALME-3M melanoma and in the test on OVCAR-8 ovarian was > 100 µM in each case. Besides, the TGI in the test with SK-MEL-28 melanoma, in the test on SNB-19 CNS, in the test with SNB-75 CNS and in the test on U251 CNS was > 100 µM in each case.
On to `CCCC(=O)OC(OC(=O)CCC)c1ccc([N+](=O)[O-])o1`, for which the TGI was 36.5 µM with 786-0 renal; 54.9 µM with COLO 205 colon; > 100 µM in the test with DU-145 prostate; 99.6 µM with EKVX NSCLC; 40.3 µM with MALME-3M melanoma; > 100 µM in the test on OVCAR-8 ovarian. In addition, the TGI was 46.9 µM in the test on SK-MEL-28 melanoma, > 100 µM in the test on SNB-19 CNS, > 100 µM in the test with SNB-75 CNS and > 100 µM in the test with U251 CNS.
With `CS(=O)(=O)CCNCc1ccoc1-c1ccc2ncnc(Nc3ccc(OCc4ccccc4)cc3)c2c1`, the GI50 was > 25 µM in the test with 786-0 renal; 24.8 µM in the test on COLO 205 colon; > 25 µM in the test with DU-145 prostate; 1.03 µM in the test on EKVX NSCLC; > 25 µM with MALME-3M melanoma; > 25 µM with OVCAR-8 ovarian. Moreover, the GI50 in the test with SK-MEL-28 melanoma is > 25 µM; in the test on SNB-19 CNS, > 25 µM; in the test with SNB-75 CNS, > 7.41 µM; in the test with U251 CNS it was > 25 µM. The TGI with 786-0 renal, with COLO 205 colon, with DU-145 prostate, with EKVX NSCLC, in the test with MALME-3M melanoma and in the test with OVCAR-8 ovarian was > 25 µM throughout. For the same molecule, the TGI with SK-MEL-28 melanoma, with SNB-19 CNS, in the test with SNB-75 CNS and with U251 CNS was > 25 µM throughout.
Consider `CC1=C(SCCC(=O)OC(C[Se]C2=C(C)C(=O)c3ccccc3C2=O)C(=O)NC(C)(C)C)C(=O)c2ccccc2C1=O` (stereo not given), for which the GI50 is 1.57 µM in the test on 786-0 renal; 1.66 µM with COLO 205 colon; 1.49 µM with DU-145 prostate; 1.58 µM in the test with EKVX NSCLC; 2.01 µM in the test with MALME-3M melanoma; 1.28 µM in the test on OVCAR-8 ovarian. The GI50 is 1.78 µM with SK-MEL-28 melanoma, 0.867 µM in the test with SNB-19 CNS, 1.45 µM in the test on SNB-75 CNS and 0.45 µM in the test on U251 CNS. The TGI was found to be 2.91 µM in the test with 786-0 renal; 3.14 µM in the test with COLO 205 colon; 2.82 µM in the test on DU-145 prostate; 4.48 µM in the test with EKVX NSCLC; 3.89 µM in the test with MALME-3M melanoma; 2.74 µM with OVCAR-8 ovarian. In addition, the TGI in the test with SK-MEL-28 melanoma worked out at 3.16 µM; in the test with SNB-19 CNS, 2.08 µM; in the test with SNB-75 CNS, 2.76 µM; in the test on U251 CNS it was 1.57 µM.
